We go through 24 molecules from US12162872B2, “Cycloalkylurea derivative” (Sumitomo Pharma Co., Ltd., priority 2019, dated 2024).

The assay concerns the target T1, Human orexin receptor type 2 (Homo sapiens, UniProt O43614).
T1 construct: expressed in transfected cells; host or cells: CHO cells (transient expression)
T1 sequence (O43614 1-444): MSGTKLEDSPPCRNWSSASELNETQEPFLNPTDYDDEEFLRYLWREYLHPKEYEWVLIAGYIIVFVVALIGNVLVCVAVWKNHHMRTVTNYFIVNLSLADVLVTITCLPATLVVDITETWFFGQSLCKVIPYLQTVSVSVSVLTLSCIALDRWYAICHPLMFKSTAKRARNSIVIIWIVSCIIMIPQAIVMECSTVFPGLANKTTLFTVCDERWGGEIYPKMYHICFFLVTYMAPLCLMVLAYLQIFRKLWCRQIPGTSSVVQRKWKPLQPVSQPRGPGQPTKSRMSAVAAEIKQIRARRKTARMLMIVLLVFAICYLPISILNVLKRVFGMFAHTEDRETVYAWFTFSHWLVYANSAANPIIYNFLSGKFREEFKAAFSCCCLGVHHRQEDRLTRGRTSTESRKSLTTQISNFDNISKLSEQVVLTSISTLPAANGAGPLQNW
As to the kind of experiment: Test 1: Evaluation of agonist activity for orexin receptor type 2 (aequorin luminescence, intracellular calcium mobilization in CHO cells). Conditions: relative percentage of luminescence for the luminescence (100%) of Orexin A (100 pM); CHO cells transiently expressing human orexin receptor type 2 and apoaequorin; Orexin A Lot. 641114. The format is cell-based. In a few lines: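 CHO cells transiently expressing human OX2 receptor and apoaequorin, seeded 16-22 h, loaded with 1 μM coelenterazine hcp for 2 h at room temperature. Compound added in Hanks/20 mM HEPES/0.1% BSA, 0.1% DMSO final, and calcium luminescence measured. Activity expressed as percent of the 100 pM Orexin A response.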
In general terms: Calcium flux is commonly read through the fluorescence of an indicator in the cells.

On to `CC(C)N1CCN([C@H]2CCCC(F)(F)[C@@H]2NC(=O)N2CCC(C)(c3noc([C@@H]4C[C@@H]4C)n3)CC2)CC1` [Example 69, N-{(1R,6S)-2,2-difluoro-6-[4-(propan-2-yl)piperazin-1-yl]cyclohexyl}-4-methyl-4-{5-[(1R,2S)-2-methylcyclopropyl]-1,2,4-oxadiazol-3-yl}piperidine-1-carboxamide], for which the “agonist activity (%)” value stood at 161%. With `CC(C)N1CC[C@@H](O[C@H]2CCCC(F)(F)[C@@H]2NC(=O)N2CCC(C)(c3noc([C@@H]4C[C@@H]4F)n3)CC2)C1` [Example 73, N-[(1R,6S)-2,2-difluoro-6-{[(3R)-1-(propan-2-yl)pyrrolidin-3-yl]oxy}cyclohexyl]-4-{5-[(1S,2S)-2-fluorocyclopropyl]-1,2,4-oxadiazol-3-yl}-4-methylpiperidine-1-carboxamide] the figure was 185%.

On to `CC(C)N1CCN([C@H]2CCCC(F)(F)[C@@H]2NC(=O)N2CCC(c3ncccn3)CC2)CC1` (racemic) [Example 36, rac-N-{(1R,6S)-2,2-difluoro-6-[4-(propan-2-yl)piperazin-1-yl]cyclohexyl}-4-(pyrimidin-2-yl)piperidine-1-carboxamide], for which the “agonist activity (%)” value was 114%.

`CC(C)N1CCN([C@H]2CCCC(F)(F)[C@@H]2NC(=O)N2CCC(C)(Oc3ccccn3)CC2)CC1` (racemic) [Example 42, rac-N-{(1R,6S)-2,2-difluoro-6-[4-(propan-2-yl)piperazin-1-yl]cyclohexyl}-4-methyl-4-[(pyridin-2-yl)oxy]piperidine-1-carboxamide]: the “agonist activity (%)” value is given as 141%.

As for `CC(C)N1CCN([C@H]2CCCC(F)(F)[C@@H]2NC(=O)N2CCC(C)(c3csc(C4CC4)n3)CC2)CC1` (racemic) [Example 47, rac-4-(2-cyclopropyl-1,3-thiazol-4-yl)-N-{(1R,6S)-2,2-difluoro-6-[4-(propan-2-yl)piperazin-1-yl]cyclohexyl}-4-methylpiperidine-1-carboxamide], the “agonist activity (%)” value is recorded as 163%. For `CC(C)N1CCN([C@H]2CCCC(F)(F)[C@@H]2NC(=O)N2CCC(C)(C3CCCC3)CC2)CC1` (racemic) [Example 26, rac-4-cyclopentyl-N-{(1R,6S)-2,2-difluoro-6-[4-(propan-2-yl)piperazin-1-yl]cyclohexyl}-4-methylpiperidine-1-carboxamide], the “agonist activity (%)” value is given as 198%. Under `CC(C)N1CCN([C@H]2CCCC(F)(F)[C@@H]2NC(=S)N2CCC(C)(c3noc(C4CC4)n3)CC2)CC1` [Example 80, 4-(5-cyclopropyl-1,2,4-oxadiazol-3-yl)-N-{(1R,6S)-2,2-difluoro-6-[4-(propan-2-yl)piperazin-1-yl]cyclohexyl}-4-methylpiperidine-1-carbothioamide] stands 178%; under `CC(C)N1CCN([C@H]2CCCC(F)(F)[C@@H]2NC(=O)N2CCC(C)(c3ccccc3)CC2)CC1` (racemic) [Example 39, rac-N-{(1R,6S)-2,2-difluoro-6-[4-(propan-2-yl)piperazin-1-yl]cyclohexyl}-4-methyl-4-phenylpiperidine-1-carboxamide], 157%; under `CC(C)N1CCN([C@H]2CCC[C@@H]2NC(=O)N2CCC(C)(c3cc(C4CC4)on3)CC2)CC1` (racemic) [Example 6, rac-4-(5-cyclopropyl-1,2-oxazol-3-yl)-4-methyl-N-{(1S,2S)-2-[4-(propan-2-yl)piperazin-1-yl]cyclopentyl}piperidine-1-carboxamide], 43%.

As to `CC(C)N1CCN([C@H]2CCCC(F)(F)[C@@H]2NC(=O)N2CCC(c3ccc(C(F)(F)F)cn3)CC2)CC1` (racemic) [Example 55, rac-N-{(1R,6S)-2,2-difluoro-6-[4-(propan-2-yl)piperazin-1-yl]cyclohexyl}-4-[5-(trifluoromethyl)pyridin-2-yl]piperidine-1-carboxamide], the “agonist activity (%)” value is listed as 95%.

Take `CC(C)N1CCN([C@H]2CCCC(F)(F)[C@@H]2OC(=O)N2CCC(C)(c3cc(C4CC4)on3)CC2)CC1` (racemic) [Example 11, rac-(1R,6S)-2,2-difluoro-6-[4-(propan-2-yl)piperazin-1-yl]cyclohexyl 4-(5-cyclopropyl-1,2-oxazol-3-yl)-4-methylpiperidine-1-carboxylate]: the “agonist activity (%)” value came to 211%. Regarding `CC(C)c1ccc(C2=CCCCC2NC(=O)N2CCC(C)(c3noc(C4CC4)n3)CC2)cn1` (racemic) [Example 16, rac-4-(5-cyclopropyl-1,2,4-oxadiazol-3-yl)-4-methyl-N-{2-[6-(propan-2-yl)pyridin-3-yl]cyclohex-2-en-1-yl}piperidine-1-carboxamide], the “agonist activity (%)” value is on record as 39%. With `CC(C)N1CCN([C@H]2CCCC(F)(F)[C@@H]2NC(=O)N2CCC(O)(c3ccccn3)CC2)CC1` (racemic) [Example 37, rac-N-{(1R,6S)-2,2-difluoro-6-[4-(propan-2-yl)piperazin-1-yl]cyclohexyl}-4-hydroxy-4-(pyridin-2-yl)piperidine-1-carboxamide] the figure was 45%.

Consider `CC(C)N1CC2CCC(C1)N2[C@H]1CCCC(F)(F)[C@@H]1NC(=O)N1CCC(C)(c2cc(C3CC3)on2)CC1` [Example 65, 4-(5-cyclopropyl-1,2-oxazol-3-yl)-N-{(1R,6S)-2,2-difluoro-6-[3-(propan-2-yl)-3,8-diazabicyclo[3.2.1]octan-8-yl]cyclohexyl}-4-methylpiperidine-1-carboxamide], for which the “agonist activity (%)” value is reported as 155%. Under `CC(C)N1CCN([C@H]2CCCC(F)(F)[C@@H]2NC(=S)N2CCC(C)(c3noc(C4CC4)n3)CC2)CC1` (racemic) [Example 79, rac-4-(5-cyclopropyl-1,2,4-oxadiazol-3-yl)-N-{(1R,6S)-2,2-difluoro-6-[4-(propan-2-yl)piperazin-1-yl]cyclohexyl}-4-methylpiperidine-1-carbothioamide] stands 191%. Under `CC(C)N1CCN([C@H]2CCCC(F)(F)[C@@H]2NC(=O)N2CCC3(CCCC3)CC2)CC1` (racemic) [Example 33, rac-N-{(1R,6S)-2,2-difluoro-6-[4-(propan-2-yl)piperazin-1-yl]cyclohexyl}-8-azaspiro[4.5]decane-8-carboxamide] stands 123%. Turning to `Cc1ccc(C2CCN(C(=O)N[C@@H]3[C@@H](N4CCN(C(C)C)CC4)CCCC3(F)F)CC2)cc1` (racemic) [Example 8, rac-N-{(1R,6S)-2,2-difluoro-6-[4-(propan-2-yl)piperazin-1-yl]cyclohexyl}-4-(4-methylphenyl)piperidine-1-carboxamide], the “agonist activity (%)” value turned out to be 207%. Under `Cc1nc(C2(C)CCN(C(=O)N[C@H]3CCCC[C@@H]3N3CCN(C(C)C)CC3)CC2)no1` (racemic) [Example 3, rac-4-methyl-4-(5-methyl-1,2,4-oxadiazol-3-yl)-N-{(1S,2S)-2-[4-(propan-2-yl)piperazin-1-yl]cyclohexyl}piperidine-1-carboxamide] stands 67%; under `CCN1CCN([C@H]2CCCC[C@@H]2NC(=O)N2CCC(c3ccc(C)cc3)CC2)CC1` (racemic) [Example 17, rac-N-[(1S,2S)-2-(4-Ethylpiperazin-1-yl)cyclohexyl]-4-(4-methylphenyl)piperidine-1-carboxamide], 72%; under `CC(C)N1CCN([C@H]2CCCC(F)(F)[C@@H]2NC(=O)N2CCC(c3ccccn3)CC2)CC1` (racemic) [Example 32, rac-N-{(1R,6S)-2,2-difluoro-6-[4-(propan-2-yl)piperazin-1-yl]cyclohexyl}-4-(pyridin-2-yl)piperidine-1-carboxamide], 176%. With `CC(C)N1CCN([C@H]2[C@H](NC(=O)N3CCC(C)(c4noc(C5CC5)n4)CC3)CCCC2(F)F)CC1` (racemic) [Example 7, rac-4-(5-cyclopropyl-1,2,4-oxadiazol-3-yl)-N-{(1R,2S)-3,3-difluoro-2-[4-(propan-2-yl)piperazin-1-yl]cyclohexyl}-4-methylpiperidine-1-carboxamide] the figure was 75%; with `CC(C)N1CCN([C@H]2CCCC(F)(F)[C@@H]2OC(=O)N2CCC(C)(c3ncn(C4CC4)n3)CC2)CC1` (racemic) [Example 13, rac-(1R,6S)-2,2-difluoro-6-[4-(propan-2-yl)piperazin-1-yl]cyclohexyl 4-(1-cyclopropyl-1H-1,2,4-triazol-3-yl)-4-methylpiperidine-1-carboxylate], 56%; with `Cc1ccc(C2(C)CCN(C(=O)N[C@@H]3[C@@H](N4CC5CC(C4)N5C(C)C)CCCC3(F)F)CC2)cc1` [Example 61, N-{(1R,6S)-2,2-difluoro-6-[6-(propan-2-yl)-3,6-diazabicyclo[3.1.1]heptan-3-yl]cyclohexyl}-4-methyl-4-(4-methylphenyl)piperidine-1-carboxamide], 169%. With `CC(C)N1CCN([C@H]2CCCC(F)(F)[C@@H]2NC(=O)N2CCC(C)(c3cc(C4CC4)on3)CC2)CC1` (racemic) [Example 20, rac-4-(5-cyclopropyl-1,2-oxazol-3-yl)-N-{(1R,6S)-2,2-difluoro-6-[4-(propan-2-yl)piperazin-1-yl]cyclohexyl}-4-methylpiperidine-1-carboxamide] the figure was 160%.
